Laboratory results reported in patent publication US20020061839A1, “Serine peptidase modulators” (priority 1998, published 2002).
Structures can show the parent of a compound that is named as a salt. Where two headings read alike, the source gives them in different places.

Experiments:
Prolyl oligopeptidase = target: T1, Prolyl oligopeptidase (Homo sapiens, UniProt P48147); assay: Inhibition of prolyl oligopeptidase (PO), Z-Gly-Pro-AMC substrate; format: biochemical; settings: PO from human platelets, 20 min at 37° C.
T1 construct: Prolyl oligopeptidase was purified from human platelets; from tissue; host or cells: human platelets
T1 sequence (P48147 1-710): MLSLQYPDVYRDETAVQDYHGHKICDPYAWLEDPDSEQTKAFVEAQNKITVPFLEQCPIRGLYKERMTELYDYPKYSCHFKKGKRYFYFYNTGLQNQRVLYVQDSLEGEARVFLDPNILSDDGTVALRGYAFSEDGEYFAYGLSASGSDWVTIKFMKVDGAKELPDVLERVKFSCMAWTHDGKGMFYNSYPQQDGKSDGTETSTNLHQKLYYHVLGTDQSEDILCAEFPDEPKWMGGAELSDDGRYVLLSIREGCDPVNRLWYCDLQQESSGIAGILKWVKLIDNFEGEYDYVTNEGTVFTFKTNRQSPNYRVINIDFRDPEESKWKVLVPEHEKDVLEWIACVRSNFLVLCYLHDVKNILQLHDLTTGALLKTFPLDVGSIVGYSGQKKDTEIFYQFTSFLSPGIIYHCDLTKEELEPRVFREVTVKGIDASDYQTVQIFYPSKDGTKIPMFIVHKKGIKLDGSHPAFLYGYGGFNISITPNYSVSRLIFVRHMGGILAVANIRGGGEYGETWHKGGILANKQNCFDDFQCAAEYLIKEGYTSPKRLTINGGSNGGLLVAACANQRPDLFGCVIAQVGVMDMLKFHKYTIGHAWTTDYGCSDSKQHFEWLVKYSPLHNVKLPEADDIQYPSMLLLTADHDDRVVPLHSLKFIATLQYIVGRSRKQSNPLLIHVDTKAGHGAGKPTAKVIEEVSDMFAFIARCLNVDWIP
Experimental: Prolyl oligopeptidase was purified from human platelets and the enzyme activity was measured using Z—Gly—Pro—AMC (4.4 mM) as the substrate in a K-phosphate buffer 100 mM, pH 7.5 containing 1 EM EDTA, 1 mM dithiothreitol and 1 mM NaN3. The incubation was carried out during 20 min at 37° C. The reaction was stopped by the addition of 5 volumes 1.5 M acetic acid. Fluorescence was measured at 370 and 440 nm as excitation and emission wavelengths respectively. The inhibitors were added at concentrations varying between 1 μM and 1 mM.

in vitro = settings: human, plasma
DPP IV = target: T2, DPP IV (Homo sapiens, UniProt P27487); assay: biochemical; format: biochemical; settings: for kinact/KI: 0.25 h, pH 8.3, read-out: kcalc (second order rate constant of inactivation)
T2 construct: DPP IV was purified from human seminal plasma as described previously; from tissue; host or cells: human seminal plasma
Experimental: Enzymatic activity was measured at 37° C. in a Spectramax 340 (Molecular Devices) microtiterplate reader using Gly—Pro-p-nitroanilide (Sigma) as a chromogenic substrate. […] The reaction mixture contained 2 mM substrate, approximately 1 mU of DPP IV, 40 EM TRIS-HCl buffer, pH 8.3, and a suitable amount of inhibitor (ranging between 0 an 10 mM) in a total volume of 0.2 ml. Activity measurements were routinely performed in duplicate.
Stock solutions were diluted with 50 mM TRIS-HCl buffer, pH 8.3, as required, immediately before the experiment. […] For a simple pseudo-first order inactivation process, the activity after incubation with inhibitor (vi) varies with the inhibitor concentration (i) as described in the following equation: vi=vo * e-k.i.t, where vo is the activity in absence of inhibitor, k is the second order rate constant of inactivation and t is the time.

[1] = 15 min pre-incubation with DPP IV at 37° C., average ± standard deviation

T2 sequence (P27487 whole entry): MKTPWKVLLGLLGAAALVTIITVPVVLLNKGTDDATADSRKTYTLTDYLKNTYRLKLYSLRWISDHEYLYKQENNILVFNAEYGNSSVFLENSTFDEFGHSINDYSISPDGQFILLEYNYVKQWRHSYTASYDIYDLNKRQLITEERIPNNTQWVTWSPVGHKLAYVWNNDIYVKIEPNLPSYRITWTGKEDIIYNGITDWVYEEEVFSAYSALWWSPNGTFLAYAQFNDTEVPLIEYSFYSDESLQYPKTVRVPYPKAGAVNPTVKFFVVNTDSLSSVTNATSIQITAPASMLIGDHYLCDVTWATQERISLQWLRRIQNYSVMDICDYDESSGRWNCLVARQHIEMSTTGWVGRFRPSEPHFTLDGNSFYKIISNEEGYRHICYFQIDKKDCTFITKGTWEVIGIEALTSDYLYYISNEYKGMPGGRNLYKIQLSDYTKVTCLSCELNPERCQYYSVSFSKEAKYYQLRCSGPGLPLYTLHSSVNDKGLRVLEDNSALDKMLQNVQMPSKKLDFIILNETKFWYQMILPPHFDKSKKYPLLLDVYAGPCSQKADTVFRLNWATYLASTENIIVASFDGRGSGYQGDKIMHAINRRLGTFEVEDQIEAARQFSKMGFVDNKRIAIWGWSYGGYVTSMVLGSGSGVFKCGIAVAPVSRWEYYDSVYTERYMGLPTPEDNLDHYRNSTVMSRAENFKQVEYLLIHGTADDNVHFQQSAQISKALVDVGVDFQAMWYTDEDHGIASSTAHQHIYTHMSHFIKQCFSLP

SMILES | IC50 (Prolyl oligopeptidase) [µM] | half-life at 1 mM (in vitro) [h] | also measured
CC(=O)Nc1cccc(OP(=O)(Oc2cccc(NC(C)=O)c2)C2CCCN2C(=O)[C@@H]2CCCN2C(=O)OCc2ccccc2)c1 (mixture of isomers) [10d, Di(3-acetamidophenyl) 1-(benzyloxycarbonyl-(S)-prolyl)-pyrrolidine-2(R,S)-phosphonate] | 10 |  | 
CC(=O)Nc1ccc(OP(=O)(Oc2ccc(NC(C)=O)cc2)C2CCCN2C(=O)[C@@H]2CCCN2C(=O)OCc2ccccc2)cc1 (mixture of isomers) [10e, Di(4-acetamidophenyl) 1-(benzyloxycarbonyl-(S)-prolyl)-pyrrolidine-2(R,S)-phosphonate] | 21 |  | 
CS(=O)(=O)Nc1ccc(OP(=O)(Oc2ccc(NS(C)(=O)=O)cc2)C2CCCN2C(=O)[C@@H]2CCCN2C(=O)OCc2ccccc2)cc1 (mixture of isomers) [10f, Di(4-methylsulfonylaminophenyl) 1-(benzyloxycarbonyl-(S)-prolyl)pyrrolidine-2(R,S)-phosphonate] | 10 |  | 
O=C(CNC(=O)c1ccccc1)Nc1ccc(OP(=O)(Oc2ccc(NC(=O)CNC(=O)c3ccccc3)cc2)C2CCCN2C(=O)[C@@H]2CCCN2C(=O)OCc2ccccc2)cc1 (mixture of isomers) [10h, Di[4-(N-benzoylglycylamino)phenyl]-1-(benzyloxycarbonyl-(S)-prolyl)pyrrolidine-2(R,S)-phosphonate] | 12 |  | 
O=C(CNC(=O)OCc1ccccc1)Nc1ccc(OP(=O)(Oc2ccc(NC(=O)CNC(=O)OCc3ccccc3)cc2)C2CCCN2C(=O)[C@@H]2CCCN2C(=O)OCc2ccccc2)cc1 (mixture of isomers) [10i, Di[4-(N-benzyloxycarbonylglycylamino)phenyl]-1-(benzyloxycarbonyl-(S)-prolyl)pyrrolidine-2(R,S)-phosphonate] | 15 |  | 
COC(=O)[C@H](Cc1ccc(OP(=O)(Oc2ccc(C[C@H](NC(C)=O)C(=O)OC)cc2)C2CCCN2C(=O)[C@@H]2CCCN2C(=O)OCc2ccccc2)cc1)NC(C)=O (mixture of isomers) [10l, Di{4-[-(S)-(2-methoxycarbonyl-2-acetamido)ethyl]phenyl}1-(benzyloxycarbonyl-(S)-prolyl)pyrrolidine-2(R,S)-phosphonate] | 20 |  | 
CCOC(=O)CNC(=O)c1ccc(OP(=O)(Oc2ccc(C(=O)NCC(=O)OCC)cc2)C2CCCN2C(=O)[C@@H]2CCCN2C(=O)OCc2ccccc2)cc1 (mixture of isomers) [10n, Di{4-[(ethoxycarbonyl)methylaminocarbonyl]phenyl}1-(benzyloxycarbonyl-(S)-prolyl)-pyrrolidine-2(R,S)-phosphonate] | 5 |  | 
COC(=O)CCNC(=O)c1ccc(OP(=O)(Oc2ccc(C(=O)NCCC(=O)OC)cc2)C2CCCN2C(=O)[C@@H]2CCCN2C(=O)OCc2ccccc2)cc1 (mixture of isomers) [10o, Di{4-[2-(methoxycarbonyl)ethylaminocarbonyl]phenyl}1-(benzyloxycarbonyl-(S)-prolyl)-pyrrolidine-2(R,S)-phosphonate] | 2.8 |  | 
CCCNC(=O)c1ccc(OP(=O)(Oc2ccc(C(=O)NCCC)cc2)C2CCCN2C(=O)[C@@H]2CCCN2C(=O)OCc2ccccc2)cc1 (mixture of isomers) [10p, Di[4-(n-propylaminocarbonyl)phenyl]1-(benzyloxycarbonyl-(S)-prolyl)-pyrrolidine-2(R,S)-phosphonate] | 3.2 |  | 
CC(=O)Nc1cccc(OP(=O)(Oc2cccc(NC(C)=O)c2)C2CCCN2C(=O)[C@@H]2CCCN2)c1.Cl (mixture of isomers) [11d, Di(3-acetamidophenyl) 1-((S)-prolyl)pyrrolidine-2(R,S)-phosphonate hydrochloride] |  | 3.67 ± 0.5 | 
CS(=O)(=O)Nc1ccc(OP(=O)(Oc2ccc(NS(C)(=O)=O)cc2)C2CCCN2C(=O)[C@@H]2CCCN2)cc1.Cl (mixture of isomers) [11f, Di(4-methylsulfonylaminophenyl) 1-((S)-prolyl)-pyrrolidine-2(R,S)-phosphonate hydrochloride] |  | 2.5 ± 0.5 | potency compared to the diastereoisomeric mixture 5 (DPP IV; DPP IV inhibition): about 100 times
NC(=O)Nc1cccc(OP(=O)(Oc2cccc(NC(N)=O)c2)C2CCCN2C(=O)[C@@H]2CCCN2)c1 (mixture of isomers) [11g, Di(3-ureylphenyl) 1-((S)-prolyl)pyrrolidine-2(R,S)-phosphonate hydrochloride] |  | 3.5 ± 1.33 | kinact/KI (DPP IV): 330 M⁻¹ s⁻¹; IC50 (DPP IV; [1]): 2.3 ± 0.3 µM
Cl.O=C(CNC(=O)c1ccccc1)Nc1ccc(OP(=O)(Oc2ccc(NC(=O)CNC(=O)c3ccccc3)cc2)C2CCCN2C(=O)[C@@H]2CCCN2)cc1 (mixture of isomers) [11h, Di[4-(N-benzoylglycylamino)phenyl]-1-((S)-prolyl)pyrrolidine-2(R,S)-phosphonate hydrochloride] |  | 1.55 ± 0.05 | 
Cl.Cl.Cl.NCC(=O)Nc1ccc(OP(=O)(Oc2ccc(NC(=O)CN)cc2)C2CCCN2C(=O)[C@@H]2CCCN2)cc1 (mixture of isomers) [11i, Di[4-(N-glycylamino)phenyl]-1-((S)-prolyl)-pyrrolidine-2(R,S)-phosphonate trihydrochloride] |  | 0.467 ± 0.05 | 
C[C@H](N)C(=O)Nc1ccc(OP(=O)(Oc2ccc(NC(=O)[C@H](C)N)cc2)C2CCCN2C(=O)[C@@H]2CCCN2)cc1 (mixture of isomers) [11j, Di(4-(S)-alanylaminophenyl)-1-((S)-prolyl)pyrrolidine-2(R,S)-phosphonate trihydrochloride] |  | 0.133 ± 0.0167 | kinact/KI (DPP IV): 1300 M⁻¹ s⁻¹; IC50 (DPP IV; [1]): 0.6 ± 0.2 µM
O=C1CC[C@@H](C(=O)Nc2ccc(OP(=O)(Oc3ccc(NC(=O)[C@@H]4CCC(=O)N4)cc3)C3CCCN3C(=O)[C@@H]3CCCN3)cc2)N1 (mixture of isomers) [11k, Di(4-(S)-pyroglutamylaminophenyl)-1-((S)-prolyl)pyrrolidine-2(R,S)-phosphonate hydrochloride] |  | 2.83 ± 0.5 | kinact/KI (DPP IV): 150 M⁻¹ s⁻¹; IC50 (DPP IV; [1]): 5 ± 0.8 µM
COC(=O)CCNC(=O)c1ccc(OP(=O)(Oc2ccc(C(=O)NCCC(=O)OC)cc2)C2CCCN2C(=O)[C@@H]2CCCN2)cc1.Cl (mixture of isomers) [11o, Di{4-[2-(methoxycarbonyl)ethylaminocarbonyl]phenyl}1-((S)-prolyl)-pyrrolidine-2(R,S)-phosphonate hydrochloride] |  | 0.433 ± 0.0167 | 
CCCNC(=O)c1ccc(OP(=O)(Oc2ccc(C(=O)NCCC)cc2)C2CCCN2C(=O)[C@@H]2CCCN2)cc1.Cl (mixture of isomers) [11p, Di[4-(n-propylaminocarbonyl)phenyl]1-((S)-prolyl)-pyrrolidine-2(R,S)-phosphonate hydrochloride] |  | 0.2 ± 0.0167 | 
COP(=O)(Oc1ccccc1-c1ccccc1O)C1CCCN1C(=O)[C@@H]1CCCN1 (mixture of isomers) [compound 18, 2-(2′-Hydroxyphenyl)phenyl methyl 1-(S)-prolyl)-pyrrolidine-2(R,S)-phosphonate hydrochloride] |  | 2.33 ± 1.33 | IC50 (DPP IV): 47 µM; kinact/KI (DPP IV): 16 M⁻¹ s⁻¹
COC(=O)C(Cc1ccc(OP(=O)(Oc2ccc(CC(NC(C)=O)C(=O)OC)cc2)C2CCCN2C(=O)C2CCCN2)cc1)NC(C)=O [11l, Di{4-[-(S)-(2-methoxycarbonyl-2-acetamido)ethyl]phenyl}1-((S)-prolyl)pyrrolidine-2-phosphonate hydrochloride] |  | 3.17 ± 2.5 | IC50 (DPP IV): 1.4 µM; kinact/KI (DPP IV): 550 M⁻¹ s⁻¹
